Measured values taken from publication PMC10832398 (Molecular cancer therapeutics, 2023).
Where “and” joins values, the source holds several entries; their conditions need not be identical. Identical values can stand only once.

Assays:
HS02 cells = assay: Combination matrix cell viability assay; assay type: cell-based, human
HS01 cells = assay: Combination matrix cell viability assay; assay type: cell-based, human
[1] = tested on: phospho-AKT, phospho-FAK, phospho-Src, EphA2, cyclin D1, p21 in HS01 cells; assay: Western blots of whole cell lysates of HS01 cells; assay type: cell-based, human; conditions: HS01, 24h
[2] = tested on: primary human vestibular schwannoma (VS) cells; assay: ApoTox-Glo viability in primary VS cells; assay type: cell-based; conditions: 96 hrs; omipalisib 16nM; dasatinib 200, 400, and 800nM
[3] = Homo sapiens, 72 h, HS02, single drug within the combination matrix
[4] = Homo sapiens, 72 h, HS01, single drug within the combination matrix
[5] = HS02, single drug within the combination matrix, 72h
[6] = HS01, single drug within the combination matrix, 72h

Nc1cc(C(F)(F)F)c(-c2cc(N3CCOCC3)nc(N3CCOCC3)n2)cn1 [Buparlisib]
GI50 (HS02 cells; [3]): 4.9 µM | GI50 (HS01 cells; [4]): 4.3 µM

CNC(=O)c1ccccc1Nc1nc(Nc2ccc(N3CCOCC3)cc2OC)ncc1Cl [TAE226]
GI50 (HS02 cells; [5]): 2.1 µM | GI50 (HS01 cells; [6]): 1 µM

CN(c1ncccc1CNc1nc(Nc2ccc3c(c2)CC(=O)N3)ncc1C(F)(F)F)S(C)(=O)=O [PF-00562271]
GI50 (HS02 cells; [5]): 6.5 µM and 3.8 µM

CCn1c(=O)c(-c2cc[nH]n2)cc2c(C)nc(N)nc21 [Voxtalisib]
GI50 (HS02 cells; [3]): > 10 µM | GI50 (HS01 cells; [4]): > 10 µM

CS(=O)(=O)N1CCN(Cc2cc3nc(-c4cccc5[nH]ncc45)nc(N4CCOCC4)c3s2)CC1 [Pictilisib]
GI50 (HS02 cells; [3]): > 10 µM

CN(C)C1CCN(C(=O)c2ccc(NC(=O)Nc3ccc(-c4nc(N5CCOCC5)nc(N5CCOCC5)n4)cc3)cc2)CC1 [Gedatolisib]
GI50 (HS02 cells; Homo sapiens, 72 h): 0.09 µM | GI50 (HS01 cells; Homo sapiens, 72 h): 0.08 µM

Cc1nc(Nc2ncc(C(=O)Nc3c(C)cccc3Cl)s2)cc(N2CCN(CCO)CC2)n1 [Dasatinib, dasatinib]
GI50 (HS02 cells; [3]): > 10 µM | GI50 (HS01 cells; [4]): > 10 µM | phosphorylated FAK-Tyr576 and Src-Tyr527 ([1]; dasatinib 100 and 400nM alone or in combination): Dose-dependent decreases

COc1ncc(-c2ccc3nccc(-c4ccnnc4)c3c2)cc1NS(=O)(=O)c1ccc(F)cc1F [Omipalisib, omipalisib]
reduction in viability (mean fold change of all VS tumors) [2]: ≥ 20% | GI50 (HS01 cells; [6]): 0.02 µM | GI50 (HS01 cells; Homo sapiens, alone in HS01 cells): 0.05 to 0.08 µM | synergistic doses (HS01 cells; omipalisib/dasatinib matrix, Fig. 1A (HS01, HS02)): 39 to 156 nM | Cyclin D1 levels ([1]; 0.1 μM): reduced | p21 levels ([1]; 0.1 μM): not observed | Phospho-AKT (T308 and S473) decrease ([1]; omipalisib 4 and 16nM alone or with dasatinib 100 and 400nM): 91-99% | phosphorylated Src-Tyr527 levels compared to vehicle ([1]; omipalisib alone): increased

CNC(=O)c1ccccc1Nc1cc(Nc2ccc(N3CCOCC3)cc2OC)ncc1C(F)(F)F [PND-1186]
GI50 (HS02 cells; [3]): > 10 µM | GI50 (HS01 cells; [4]): > 10 µM
